Source: patent US20070155832A1, “Use of sulfonamide compounds for the treatment of diabetes and/or obesity” (priority 2003, published 2007)

Legend:
Type in all cases: biochemical
DGAT1 and DGAT2 [1] = test: DGAT inhibition (DGAT1 and DGAT2) in rat liver microsomes
Protocol: (§1) The ability of compounds to inhibit DGAT can be measured as described in Coleman (1992) Methods in Enzymology 209, 98-102.
(§2) The inhibitory activity of sulfamic acid [[2,4,6-tris(1-methylethyl)phenyl]acetyl-2,6-bis(1-methylethyl)phenyl ester against DGAT1, DGAT2 and ACAT was measured in rat and human liver microsomes. DGAT1 and DGAT2 can be distinguished since DGAT2 is not active at high magnesium concentrations (concentrations of 50 mM or higher) whilst DGAT1 retains its activity at high magnesium concentrations.
(§3) The results obtained, expressed as the concentration of inhibitor at which 50% of the enzyme activity is inhibited, i.e. the IC50, are as follows: […]

DGAT1 [2] = molecular target: T1, DGAT1 (Rattus norvegicus, UniProt Q9ERM3); test: DGAT1 inhibition at 100 mM Mg in rat liver microsomes
T1 construct: from tissue; host or cells: rat liver microsomes
T1 sequence (Q9ERM3 1-498): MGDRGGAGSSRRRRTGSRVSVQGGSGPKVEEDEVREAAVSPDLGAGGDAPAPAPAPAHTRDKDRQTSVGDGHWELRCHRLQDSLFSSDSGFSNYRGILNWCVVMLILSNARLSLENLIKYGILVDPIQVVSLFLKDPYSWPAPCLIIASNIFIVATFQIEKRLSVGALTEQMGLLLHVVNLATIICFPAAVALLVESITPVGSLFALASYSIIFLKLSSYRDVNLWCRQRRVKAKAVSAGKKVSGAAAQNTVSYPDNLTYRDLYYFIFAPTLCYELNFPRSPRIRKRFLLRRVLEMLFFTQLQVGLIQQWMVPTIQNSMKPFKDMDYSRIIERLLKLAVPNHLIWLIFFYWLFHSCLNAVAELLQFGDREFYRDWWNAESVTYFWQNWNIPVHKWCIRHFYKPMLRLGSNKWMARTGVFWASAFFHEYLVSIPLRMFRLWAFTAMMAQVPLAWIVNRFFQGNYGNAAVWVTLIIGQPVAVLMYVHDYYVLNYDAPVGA
Protocol: as §1, §2, §3

ACAT [3] = test: ACAT inhibition in rat liver microsomes
From the text: (§4) The ability of compounds to inhibit ACAT can be measured using an in-vitro test described in Field & Salone (1982) Biochemica et Biophysica, 712, 557-570. The test assesses the ability of a test compound to inhibit the acylation of cholesterol by oleic acid by measuring the amount of radiolabeled cholesterol oleate formed from radiolabeled oleic acid in a tissue preparation containing rat liver microsomes.
as §2

DGAT1 and DGAT2 [4] = test: DGAT inhibition (DGAT1 and DGAT2) in human liver microsomes
Protocol: as §1, §2, §3

DGAT1 [5] = molecular target: T2, DGAT1 (Homo sapiens, UniProt O75907); test: DGAT1 inhibition at 100 mM Mg in human liver microsomes
T2 construct: from tissue; host or cells: human liver microsomes
T2 sequence (O75907 1-488): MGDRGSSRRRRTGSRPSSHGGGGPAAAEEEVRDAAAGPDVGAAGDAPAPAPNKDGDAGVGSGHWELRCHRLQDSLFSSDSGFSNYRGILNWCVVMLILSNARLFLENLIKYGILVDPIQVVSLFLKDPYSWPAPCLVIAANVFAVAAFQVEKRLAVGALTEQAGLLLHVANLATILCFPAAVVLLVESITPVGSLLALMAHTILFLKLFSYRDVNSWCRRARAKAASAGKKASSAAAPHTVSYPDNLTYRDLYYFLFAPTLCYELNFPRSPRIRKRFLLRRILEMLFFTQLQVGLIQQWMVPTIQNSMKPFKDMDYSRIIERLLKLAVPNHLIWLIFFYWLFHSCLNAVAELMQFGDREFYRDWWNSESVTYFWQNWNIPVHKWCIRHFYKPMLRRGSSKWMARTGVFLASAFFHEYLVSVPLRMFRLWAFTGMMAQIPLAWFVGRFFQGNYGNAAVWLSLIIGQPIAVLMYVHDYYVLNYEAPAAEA
Protocol: as §1, §2, §3

ACAT [6] = test: ACAT inhibition in human liver microsomes
From the text: as §4, §2

CC(C)c1cc(C(C)C)c(CC(=O)NS(=O)(=O)Oc2c(C(C)C)cccc2C(C)C)c(C(C)C)c1 [sulfamic acid [[2,4,6-tris(1-methylethyl)phenyl]acetyl-2,6-bis(1-methylethyl)phenyl ester]
IC50 (DGAT1 and DGAT2 [1]): 3.41 µM
IC50 (DGAT1 [2]): 2280 nM
IC50 (ACAT [3]): 1030 nM
IC50 (DGAT1 and DGAT2 [4]): 7.95 µM
IC50 (DGAT1 [5]): 3.03 µM
IC50 (ACAT [6]): 5.67 µM
